Measured values from patent US9408871B2, “Methods for inhibiting complement activation and uses thereof” (THE UNIVERSITY OF BRITISH COLUMBIA, priority 2013, dated 2016).

Tests used:
[1] = target: T1, C1-esterase inhibitor (C1-inh) (Homo sapiens, UniProt P05155); assay: C1s-mediated cleavage of C2 in the presence of C1-inh (SDS-PAGE); format: biochemical; settings: 10-500 μM, 6 nM C1s, 5 nM C1-inh
T1 sequence (P05155 23-500): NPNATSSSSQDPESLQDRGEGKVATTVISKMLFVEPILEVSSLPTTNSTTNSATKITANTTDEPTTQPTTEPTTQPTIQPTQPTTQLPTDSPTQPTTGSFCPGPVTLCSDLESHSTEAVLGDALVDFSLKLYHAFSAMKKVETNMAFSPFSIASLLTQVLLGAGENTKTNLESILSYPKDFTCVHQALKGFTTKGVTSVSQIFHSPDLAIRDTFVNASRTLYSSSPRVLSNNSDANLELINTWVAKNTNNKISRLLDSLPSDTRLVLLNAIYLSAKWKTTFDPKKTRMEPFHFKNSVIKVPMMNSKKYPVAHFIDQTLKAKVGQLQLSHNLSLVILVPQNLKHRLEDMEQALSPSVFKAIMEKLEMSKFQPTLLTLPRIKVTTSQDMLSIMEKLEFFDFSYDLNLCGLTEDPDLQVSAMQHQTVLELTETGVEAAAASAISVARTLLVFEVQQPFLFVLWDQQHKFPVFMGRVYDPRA
Description: We tested whether polyP affects the inhibitory properties of C1-inh on C1s-mediated cleavage and activation of complement factor C4 and C2. SDS-PAGE followed by coomassie staining of gels was used to monitor cleavage of C4 by C1s in the presence/absence of C1-inh and/or polyP in a purified system.
Briefly, 6 nM C1s with 10-500 μM of polyP1000 were incubated in 20 mM Hepes, 0.15 M NaCl, pH 7.5, 0.01% Tween buffer for 90 minutes at 37° C. 5 nM C1-inh was added and incubated for 30 minutes. C2 was added and incubated for 5 minutes at 37° C. The reactions were quenched with 5× loading buffer and β-ME.

[2] = test system: C5b,6, C5, C6, C7, thrombin; assay: differential scanning fluorimetry (DSF), all proteins tested; format: binding; settings: 1 mM
Description: For DSF, 25 μL reaction mixes consisting of 0.4 mg/mL protein (0.14 mg/mL for C5b,6), varying concentrations of polyphosphate diluted in HBS (20 mM HEPES, 150 mM NaCl, pH 7.4), and 5× SYPRO Orange were loaded into MicroAmp Fast Optical 96-well Reaction Plates (Applied Biosystems). Samples were heat denatured in an Applied Biosystems StepOnePlus Real-Time PCR System using a ramp configuration starting at 25° C. and increasing at 1 C.° min^−1 to 95° C. Fluorescence (in relative fluorescence units, RFU) was measured every 30 seconds^38. Data for each curve were normalized to the maximum and the minimum of the curve.
In another approach, differential scanning fluorimetry (DSF) was used to determine the thermal stability of the complement proteins in the presence and absence of polyphosphate. This technique involves heat-denaturing proteins and exposing internal hydrophobic regions to the aqueous environment, which are detected by the fluorescent dye SYPRO Orange^38. Interactions between a protein and a binding partner often change the thermal stability of the protein, observed as a shift in the melting (denaturation) curve. C5b,6, C5, C6, and C7 were individually incubated with a range of concentrations of polyphosphate>1000 and relative fluorescence (RFU) was measured as the proteins were thermally denatured. An increase in RFU indicates protein denaturation. […]

## O=P(O)(O)O [P1, Orthophosphate]
[1]
  effect on activity of C1-inh in interfering with C1s-mediated cleavage of C2: had no effect
[2]
  effect on thermal stability (DSF): had no effect on the thermal stability
